Source: PubChem BioAssay AID1745844 (Carcinogenic Potency Database (CPDB), 2022)

Test system: rodent lifetime carcinogenesis bioassay, tumor incidence TD50
Assay: carcinogenic potency in animals, long-term in vivo studies, CPDB compilation (AID 1745844)
Settings: in feed

`OCC(CO)(CBr)CBr` was tested, and the TD50 (mouse, strain B6C3F1, females, site: Harderian gland + lung + subcutaneous tissue, lesion: adenoma + adenoma, bilateral + carcinoma + alveolar/bronchiolar adenoma + alveolar/bronchiolar carcinoma + fibrosarcoma + sarcoma, dosed 104 weeks, study length 106 weeks) was 67.8 mg/kg/day, the TD50 (mouse, strain B6C3F1, females, site: Harderian gland, lesion: adenoma + adenoma, bilateral + carcinoma, dosed 104 weeks, study length 106 weeks) was 122 mg/kg/day and the TD50 (mouse, strain B6C3F1, females, site: Harderian gland, lesion: adenoma + adenoma, bilateral, dosed 104 weeks, study length 106 weeks) was 187 mg/kg/day. It also gave a TD50 (mouse, strain B6C3F1, females, site: Harderian gland, lesion: carcinoma, dosed 104 weeks, study length 106 weeks) of 323 mg/kg/day, a TD50 (mouse, strain B6C3F1, females, site: all sites, lesion: hemangioma + hemangiosarcoma, dosed 104 weeks, study length 106 weeks) of 846 mg/kg/day and a TD50 (mouse, strain B6C3F1, females, site: all sites, lesion: hemangiosarcoma, dosed 104 weeks, study length 106 weeks) of 1480 mg/kg/day. The TD50 (mouse, strain B6C3F1, females, site: any site (literature study), lesion: several types, types named in the paper, dosed 104 weeks, study length 106 weeks) was 57.3 mg/kg/day, the TD50 (mouse, strain B6C3F1, females, site: forestomach, lesion: squamous-cell papilloma, dosed 104 weeks, study length 106 weeks) was 446 mg/kg/day and the TD50 (mouse, strain B6C3F1, females, site: liver, lesion: hepatocellular adenoma + hepatoblastoma + hepatocellular carcinoma, dosed 104 weeks, study length 106 weeks) was 267 mg/kg/day. The TD50 (mouse, strain B6C3F1, females, site: liver, lesion: hepatocellular adenoma, dosed 104 weeks, study length 106 weeks) was 301 mg/kg/day, the TD50 (mouse, strain B6C3F1, females, site: lung, lesion: alveolar/bronchiolar adenoma + alveolar/bronchiolar carcinoma, dosed 104 weeks, study length 106 weeks) was 127 mg/kg/day and the TD50 (mouse, strain B6C3F1, females, site: lung, lesion: alveolar/bronchiolar adenoma, dosed 104 weeks, study length 106 weeks) was 171 mg/kg/day. For the same molecule, the TD50 (mouse, strain B6C3F1, females, site: lung, lesion: alveolar/bronchiolar carcinoma, dosed 104 weeks, study length 106 weeks) was 398 mg/kg/day, the TD50 (mouse, strain B6C3F1, females, site: mammary gland, lesion: carcinoma, dosed 104 weeks, study length 106 weeks) was 1480 mg/kg/day and the TD50 (mouse, strain B6C3F1, females, site: subcutaneous tissue, lesion: fibrosarcoma + sarcoma, dosed 104 weeks, study length 106 weeks) was 322 mg/kg/day. The TD50 (mouse, strain B6C3F1, females, site: subcutaneous tissue, lesion: sarcoma, dosed 104 weeks, study length 106 weeks) was 350 mg/kg/day, the TD50 (mouse, strain B6C3F1, males, site: Harderian gland + kidney + lung, lesion: adenoma + adenoma, bilateral + carcinoma + carcinoma, bilateral + tubule adenoma + alveolar/bronchiolar adenoma + alveolar/bronchiol, dosed 104 weeks, study length 105 weeks) was 106 mg/kg/day and the TD50 (mouse, strain B6C3F1, males, site: Harderian gland, lesion: adenoma + adenoma, bilateral + carcinoma + carcinoma, bilateral, dosed 104 weeks, study length 105 weeks) was 155 mg/kg/day. The TD50 (mouse, strain B6C3F1, males, site: Harderian gland, lesion: adenoma + adenoma, bilateral, dosed 104 weeks, study length 105 weeks) was 191 mg/kg/day, the TD50 (mouse, strain B6C3F1, males, site: any site (literature study), lesion: several types, types named in the paper, dosed 104 weeks, study length 105 weeks) was 126 mg/kg/day and the TD50 (mouse, strain B6C3F1, males, site: forestomach, lesion: squamous-cell carcinoma + squamous-cell papilloma, dosed 104 weeks, study length 105 weeks) was 581 mg/kg/day. The TD50 (mouse, strain B6C3F1, males, site: kidney, lesion: tubule adenoma, dosed 104 weeks, study length 105 weeks) was 1190 mg/kg/day, the TD50 (mouse, strain B6C3F1, males, site: liver, lesion: hepatocellular adenoma + hepatoblastoma + hepatocellular carcinoma, dosed 104 weeks, study length 105 weeks) was 2480 mg/kg/day and the TD50 (mouse, strain B6C3F1, males, site: lung, lesion: alveolar/bronchiolar adenoma + alveolar/bronchiolar carcinoma, dosed 104 weeks, study length 105 weeks) was 218 mg/kg/day. It also gave a TD50 (mouse, strain B6C3F1, males, site: lung, lesion: alveolar/bronchiolar adenoma, dosed 104 weeks, study length 105 weeks) of 270 mg/kg/day, a TD50 (mouse, strain B6C3F1, males, site: lung, lesion: alveolar/bronchiolar carcinoma, dosed 104 weeks, study length 105 weeks) of 334 mg/kg/day and a TD50 (mouse, strain B6C3F1, males, site: thyroid gland, lesion: follicular-cell adenoma, dosed 104 weeks, study length 105 weeks) of 835 mg/kg/day. It also gave a TD50 (rat, strain Fischer 344, females, site: all sites, lesion: mononuclear-cell leukemia, dosed 104 weeks, study length 105 weeks) of 406 mg/kg/day, a TD50 (rat, strain Fischer 344, females, site: any site (literature study), lesion: several types, types named in the paper, dosed 104 weeks, study length 105 weeks) of 94.4 mg/kg/day and a TD50 (rat, strain Fischer 344, females, site: esophagus + mammary gland + palate + thyroid gland + tongue, lesion: squamous-cell papilloma + adenoma + carcinoma + fibroadenoma + squamous-cell carcinoma + follicular-cell adenoma + follicular-cell c, dosed 104 weeks, study length 105 weeks) of 84.3 mg/kg/day. The TD50 (rat, strain Fischer 344, females, site: esophagus, lesion: squamous-cell papilloma, dosed 104 weeks, study length 105 weeks) was 1410 mg/kg/day, the TD50 (rat, strain Fischer 344, females, site: mammary gland, lesion: adenoma + carcinoma + fibroadenoma, dosed 104 weeks, study length 105 weeks) was 83.8 mg/kg/day and the TD50 (rat, strain Fischer 344, females, site: mammary gland, lesion: adenoma + fibroadenoma, dosed 104 weeks, study length 105 weeks) was 83 mg/kg/day. It also gave a TD50 (rat, strain Fischer 344, females, site: mammary gland, lesion: fibroadenoma, dosed 104 weeks, study length 105 weeks) of 83 mg/kg/day, a TD50 (rat, strain Fischer 344, females, site: palate + tongue, lesion: squamous-cell carcinoma + squamous-cell papilloma, dosed 104 weeks, study length 105 weeks) of 1010 mg/kg/day and a TD50 (rat, strain Fischer 344, females, site: palate + tongue, lesion: squamous-cell papilloma, dosed 104 weeks, study length 105 weeks) of 1240 mg/kg/day. For the same molecule, the TD50 (rat, strain Fischer 344, females, site: pituitary gland, lesion: pars distalis adenoma, dosed 104 weeks, study length 105 weeks) was 300 mg/kg/day, the TD50 (rat, strain Fischer 344, females, site: subcutaneous tissue, lesion: fibrosarcoma + fibroma + sarcoma, dosed 104 weeks, study length 105 weeks) was 1370 mg/kg/day and the TD50 (rat, strain Fischer 344, females, site: subcutaneous tissue, lesion: fibrosarcoma + sarcoma, dosed 104 weeks, study length 105 weeks) was 4200 mg/kg/day. It also gave a TD50 (rat, strain Fischer 344, females, site: thyroid gland, lesion: follicular-cell adenoma + follicular-cell carcinoma, dosed 104 weeks, study length 105 weeks) of 1670 mg/kg/day, a TD50 (rat, strain Fischer 344, females, site: thyroid gland, lesion: follicular-cell adenoma, dosed 104 weeks, study length 105 weeks) of 2160 mg/kg/day and a TD50 (rat, strain Fischer 344, females, site: tongue, lesion: squamous-cell carcinoma + squamous-cell papilloma, dosed 104 weeks, study length 105 weeks) of 1260 mg/kg/day. It also gave a TD50 (rat, strain Fischer 344, females, site: tongue, lesion: squamous-cell papilloma, dosed 104 weeks, study length 105 weeks) of 1360 mg/kg/day, a TD50 (rat, strain Fischer 344, females, site: uterus, lesion: endometrial stromal polyp + endometrial stromal sarcoma, dosed 104 weeks, study length 105 weeks) of 859 mg/kg/day and a TD50 (rat, strain Fischer 344, females, site: uterus, lesion: endometrial stromal polyp, dosed 104 weeks, study length 105 weeks) of 904 mg/kg/day. For the same molecule, the TD50 (rat, strain Fischer 344, males, site: Zymbal's gland, lesion: adenoma + carcinoma + carcinoma, bilateral, dosed 12 weeks, study length 103 weeks) was 138 mg/kg/day, the TD50 (rat, strain Fischer 344, males, site: Zymbal's gland, lesion: adenoma + carcinoma, dosed 104 weeks, study length 105 weeks) was 1600 mg/kg/day and the TD50 (rat, strain Fischer 344, males, site: Zymbal's gland, lesion: adenoma, dosed 104 weeks, study length 105 weeks) was 1950 mg/kg/day. It also gave a TD50 (rat, strain Fischer 344, males, site: Zymbal's gland, lesion: carcinoma + carcinoma, bilateral, dosed 12 weeks, study length 103 weeks) of 138 mg/kg/day, a TD50 (rat, strain Fischer 344, males, site: all sites + colon + esophagus + gingiva + jejunum + lung + mammary gland + palate + skin + subcutaneous tissue + thyroid gland + tongue + urinar, lesion: mononuclear-cell leukemia + mesothelioma, malignant + adenomatous polyp + squamous-cell papilloma + squamous-cell carcinoma + carc, dosed 104 weeks, study length 105 weeks) of 68.1 mg/kg/day and a TD50 (rat, strain Fischer 344, males, site: all sites, lesion: mesothelioma, malignant, dosed 12 weeks, study length 103 weeks) of 28.4 mg/kg/day. For the same molecule, the TD50 (rat, strain Fischer 344, males, site: all sites, lesion: mesothelioma, malignant, dosed 104 weeks, study length 105 weeks) was 335 mg/kg/day, the TD50 (rat, strain Fischer 344, males, site: all sites, lesion: mononuclear-cell leukemia, dosed 12 weeks, study length 103 weeks) was 22.5 mg/kg/day and the TD50 (rat, strain Fischer 344, males, site: all sites, lesion: mononuclear-cell leukemia, dosed 104 weeks, study length 105 weeks) was 95.8 mg/kg/day. The TD50 (rat, strain Fischer 344, males, site: any site (literature study), lesion: several types, types named in the paper, dosed 12 weeks, study length 103 weeks) was 6.25 mg/kg/day, the TD50 (rat, strain Fischer 344, males, site: any site (literature study), lesion: several types, types named in the paper, dosed 104 weeks, study length 105 weeks) was 63.8 mg/kg/day and the TD50 (rat, strain Fischer 344, males, site: colon + rectum, lesion: adenomatous polyp + carcinoma, dosed 12 weeks, study length 103 weeks) was 146 mg/kg/day. The TD50 (rat, strain Fischer 344, males, site: colon + rectum, lesion: adenomatous polyp, dosed 12 weeks, study length 103 weeks) was 152 mg/kg/day, the TD50 (rat, strain Fischer 344, males, site: colon, lesion: adenomatous polyp, dosed 104 weeks, study length 105 weeks) was 997 mg/kg/day and the TD50 (rat, strain Fischer 344, males, site: esophagus, lesion: squamous-cell papilloma, dosed 104 weeks, study length 105 weeks) was 1390 mg/kg/day. The TD50 (rat, strain Fischer 344, males, site: forestomach, lesion: squamous-cell papilloma, dosed 12 weeks, study length 103 weeks) was 217 mg/kg/day, the TD50 (rat, strain Fischer 344, males, site: forestomach, lesion: squamous-cell papilloma, dosed 104 weeks, study length 105 weeks) was 16000 mg/kg/day and the TD50 (rat, strain Fischer 344, males, site: gingiva + palate + tongue, lesion: squamous-cell carcinoma + squamous-cell papilloma, dosed 104 weeks, study length 105 weeks) was 285 mg/kg/day. The TD50 (rat, strain Fischer 344, males, site: ileum + jejunum, lesion: carcinoma + adenomatous polyp, dosed 12 weeks, study length 103 weeks) was 363 mg/kg/day, the TD50 (rat, strain Fischer 344, males, site: ileum + jejunum, lesion: carcinoma, dosed 12 weeks, study length 103 weeks) was 445 mg/kg/day and the TD50 (rat, strain Fischer 344, males, site: jejunum, lesion: carcinoma, dosed 104 weeks, study length 105 weeks) was 5660 mg/kg/day.
